Ki data for ten compounds are collected here from patent publication US20240067637A1, “NAPHTHYRIDINE AND PYRIDO[3,4-c]PYRIDAZINE DERIVATIVES AS GABAA ALPHA 5 RECEPTOR MODULATORS” (Richter Gedeon Nyrt., priority 2020, published 2024).

Chain of human recombinant GABAA α5β3γ2 receptor (P31644 32-462): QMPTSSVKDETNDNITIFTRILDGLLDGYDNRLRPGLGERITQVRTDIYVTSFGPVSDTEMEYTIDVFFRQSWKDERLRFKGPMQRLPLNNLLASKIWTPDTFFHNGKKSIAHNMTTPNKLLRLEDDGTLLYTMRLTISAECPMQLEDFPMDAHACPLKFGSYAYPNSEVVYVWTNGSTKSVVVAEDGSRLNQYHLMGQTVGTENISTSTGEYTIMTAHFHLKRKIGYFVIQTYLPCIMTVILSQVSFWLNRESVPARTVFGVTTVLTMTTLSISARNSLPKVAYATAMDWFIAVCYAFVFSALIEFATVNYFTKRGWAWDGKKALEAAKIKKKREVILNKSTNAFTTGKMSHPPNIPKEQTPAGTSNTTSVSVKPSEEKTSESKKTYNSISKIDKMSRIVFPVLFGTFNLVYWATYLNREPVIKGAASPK
Chain of human recombinant GABAA α5β3γ2 receptor (P28472 26-473 partner): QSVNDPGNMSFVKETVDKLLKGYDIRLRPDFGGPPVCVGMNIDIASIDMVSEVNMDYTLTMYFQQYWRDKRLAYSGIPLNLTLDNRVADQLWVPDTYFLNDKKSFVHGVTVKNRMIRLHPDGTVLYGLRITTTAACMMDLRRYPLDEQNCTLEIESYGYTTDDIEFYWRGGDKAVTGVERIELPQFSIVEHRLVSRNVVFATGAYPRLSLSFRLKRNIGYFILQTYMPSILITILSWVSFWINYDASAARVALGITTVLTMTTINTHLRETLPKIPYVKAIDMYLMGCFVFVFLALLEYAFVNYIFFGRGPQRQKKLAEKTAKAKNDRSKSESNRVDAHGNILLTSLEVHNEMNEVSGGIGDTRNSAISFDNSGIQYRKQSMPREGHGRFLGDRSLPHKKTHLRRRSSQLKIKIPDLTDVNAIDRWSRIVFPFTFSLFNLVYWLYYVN
Chain of human recombinant GABAA α5β3γ2 receptor (P18507 40-475): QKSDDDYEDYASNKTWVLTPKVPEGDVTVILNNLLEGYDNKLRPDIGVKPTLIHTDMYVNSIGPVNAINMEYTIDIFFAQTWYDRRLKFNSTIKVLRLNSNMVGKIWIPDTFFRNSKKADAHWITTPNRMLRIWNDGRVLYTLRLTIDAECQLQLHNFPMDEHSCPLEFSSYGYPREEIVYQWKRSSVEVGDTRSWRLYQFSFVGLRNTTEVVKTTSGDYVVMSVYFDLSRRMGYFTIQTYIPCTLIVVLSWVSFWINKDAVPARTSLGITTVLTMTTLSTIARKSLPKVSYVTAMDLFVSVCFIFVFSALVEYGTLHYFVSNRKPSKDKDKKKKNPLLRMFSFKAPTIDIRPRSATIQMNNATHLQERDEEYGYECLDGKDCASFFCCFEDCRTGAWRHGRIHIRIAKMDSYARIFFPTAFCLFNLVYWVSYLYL

In this assay the target is human recombinant GABAA α5β3γ2 receptor (Homo sapiens (Human), UniProt P18507+P31644). Nature of the assay: Radioligand ([3H]Ro151788) receptor binding assay. As to conditions: membranes of HEK cells expressing human recombinant GABAA α5β3γ2; 0.5 nM [3H]Ro151788; 60 minutes at 4° C.; read-out: hGABAA α5 Ki. As for the experimental part:
The GABAA α5β3γ2 protein used for the receptor binding assay was derived from membranes produced from HEK cells (Millipore CYL3073) expressing the human recombinant GABAA α5β3γ2 receptor. Cells were stored and cultured in-house according to the instructions provided by the vendor (Millipore). Cell pellet was homogenized in 10 times modified Krebs Henseleit buffer (membrane preparation buffer): 20 mM Tris, 120 mM NaCl, 100 mM KCl, 25 mM CaCl2 and 25 mM MgCl2 pH=7.4 at 4° C. using Ultra Turrax (Janke&Kunkel) maximal speed for 15 seconds. The homogenate was centrifuged at 40,000 g for 30 minutes at 4° C. Supernatant was discarded and the resulting pellet was washed in membrane preparation buffer. Pellet was resuspended in membrane preparation buffer and aliquots of 1.4 mL ampules were stored at −70° C. until use.
Receptor binding assays were performed in 96-well format in deep-well plates. For each 96-well plate one ampule of membrane homogenate was thawed and diluted in binding buffer (50 mM Tris pH=7.4, 100 mM KCl) and 200 μL was dispensed into each well. Radioligand [^3H]Ro151788 (Perkin Elmer: NET757250UC) was prepared in binding buffer and added to each well in 50 μL volume to give final concentration of 0.5 nM. Test compounds in suitable concentration(s) were added in additional 50 μL. The final assay volume was 300 μL. Incubation was carried out for 60 minutes at 4° C. For non-specific binding 10 μM unlabeled diazepam was used. After incubation samples were filtered over UniFilter® GF/BT using Filtermate Harvester (Perkin Elmer) and washed with 5×1 mL binding buffer. The plate was dried at 40° C. for an hour and 40 μL Microscint (Perkin Elmer) scintillation cocktail was added to each well. The plate was read in Microbeta (Perkin Elmer).
The specific radioligand binding (SB) was defined as the difference between total binding (Tot) and the non-specific binding (NSB). Results are expressed as a percent inhibition of specific binding obtained in the presence of compound of interest.
For IC50 and Ki determination a minimum of six drug concentrations in triplicate were used. IC50 values (i.e. concentration of compound giving 50% inhibition of specific binding) were calculated from concentration-displacement curves by sigmoidal fitting using Origin 7.5 software. Ki values (i.e. inhibition constants) were calculated using the Cheng-Prusoff equation Ki=IC50/[1+(L/KD)], where [L] is the radioligand concentration and KD the affinity of the labelled ligand for receptor. KD was determined from the Saturation analyses.
`CC(=O)N1CCc2cc(OCc3c(-c4ccc(C(F)(F)F)nc4)noc3C)nnc2C1` [Example 34, 1-[3-({5-methyl-3-[6-(trifluoromethyl)pyridin-3-yl]-1,2-oxazol-4-yl}methoxy)-5H,6H,7H,8H-pyrido[3,4-c]pyridazin-7-yl]ethan-1-one]: the Ki (in general, the dissociation constant of the complex between target and ligand, obtained from inhibition or displacement) came to 8.1 nM.
As for `Cc1ccc(-n2nnc(C)c2COc2cc3c(cn2)CN(C(=O)CF)CC3)cn1` [Example 38, 2-fluoro-1-(6-{[4-methyl-1-(6-methylpyridin-3-yl)-1H-1,2,3-triazol-5-yl]methoxy}-1,2,3,4-tetrahydro-2,7-naphthyridin-2-yl)ethan-1-one], the inhibition constant (Ki) stood at 6.6 nM.
The value for `Cc1ccc(-c2noc(C)c2COc2cc3c(cn2)CN(C(=O)[C@H]2CCC(=O)N2C)CC3)cn1` [Example 21, (5R)-1-methyl-5-(6-{[5-methyl-3-(6-methylpyridin-3-yl)-1,2-oxazol-4-yl]methoxy}-1,2,3,4-tetrahydro-2,7-naphthyridine-2-carbonyl)pyrrolidin-2-one] was 5.7 nM.
The value for `Cc1ccc(-c2noc(C)c2COc2cc3c(nn2)CN(C(=O)C2CC2)CC3)cn1` [Example 28, 5-{4-[({7-cyclopropanecarbonyl-5H,6H,7H,8H-pyrido[3,4-c]pyridazin-3-yl}oxy)methyl]-5-methyl-1,2-oxazol-3-yl}-2-methylpyridine] was 4.4 nM; that for `Cc1ccc(-c2noc(C)c2COc2cc3c(cn2)CN(C(=O)c2ccncc2)CC3)cn1` [Example 9, 6-{[5-methyl-3-(6-methylpyridin-3-yl)-1,2-oxazol-4-yl]methoxy}-2-(pyridine-4-carbonyl)-1,2,3,4-tetrahydro-2,7-naphthyridine] was 10 nM; that for `Cc1ccc(-c2noc(C)c2COc2cc3c(cn2)CN(C(=O)C2CCOCC2)CC3)cn1` [Example 10, 6-{[5-methyl-3-(6-methylpyridin-3-yl)-1,2-oxazol-4-yl]methoxy}-2-(oxane-4-carbonyl)-1,2,3,4-tetrahydro-2,7-naphthyridine] was 17 nM.
The value for `Cc1ccc(-c2noc(C)c2COc2cc3c(nn2)CN(C(=O)N2CCOCC2)CC3)cn1` [Example 26, 4-(3-{[5-methyl-3-(6-methylpyridin-3-yl)-1,2-oxazol-4-yl]methoxy}-5H,6H,7H,8H-pyrido[3,4-c]pyridazine-7-carbonyl)morpholine] was 13 nM; that for `CCC(=O)N1CCc2cc(OCc3c(C)nnn3-c3ccc(C(F)F)nc3)ncc2C1` [Example 56, 1-[6-({1-[6-(difluoromethyl)pyridin-3-yl]-4-methyl-1H-1,2,3-triazol-5-yl}methoxy)-3,4 dihydro-2,7-naphthyridin-2(1H)-yl]propan-1-one] was 1.6 nM; that for `Cc1ccc(-c2noc(C)c2COc2cc3c(nn2)CN(C(=O)NC2CC2)CC3)cn1` [Example 33, N-cyclopropyl-3-{[5-methyl-3-(6-methylpyridin-3-yl)-1,2-oxazol-4-yl]methoxy}-5H,6H,7H,8H-pyrido[3,4-c]pyridazine-7-carboxamide] was 2.2 nM.
With `CCC(=O)N1CCc2cc(OCc3c(C)nnn3-c3ccc(C(F)(F)F)nc3)ncc2C1` [Example 48, 1-[6-({4-methyl-1-[6-(trifluoromethyl)pyridin-3-yl]-1H-1,2,3-triazol-5-yl}methoxy)-1,2,3,4-tetrahydro-2,7-naphthyridin-2-yl]propan-1-one], the Ki is 33 nM.
